Test results reported in patent US20170190705A1, “Compositions and Methods for Inhibiting BMP” (THE BRIGHAM AND WOMAN'S HOSPITAL, INC., priority 2014, published 2017).
Like-named read-outs stand apart in the source and are kept apart here.

Columns and labels:
Type in all cases: biochemical
ARG (ABL2) = ARG (ABL2) (Homo sapiens, UniProt P42684); assay: Kinome profiling ARG (ABL2); conditions: for inhibition at 0.1 µM: 100 nM
Experimental: (§1) . The kinome-wide selectivity was determined following the methods previously reported by Mohedas et al., ACS Chem Biol 2013, 8, 1291-1302 and Sanvitale et al., PLoS One 2013, 8, e62721.

PDGFRα = PDGFRα (Homo sapiens, UniProt P16234); assay: Kinome profiling PDGFRα; conditions: read-out: Inhibitory activity PDGFRα; for inhibition at 0.1 µM: 100 nM
Experimental: as §1

MNK2 = MNK2 (Homo sapiens, UniProt Q9HBH9); assay: Kinome profiling MNK2; conditions: read-out: Inhibitory activity MNK2; for inhibition at 0.1 µM: 100 nM
Experimental: as §1

RSK1 = RSK1 (Homo sapiens, UniProt Q15418); assay: Kinome profiling RSK1; conditions: read-out: Inhibitory activity RSK1; for inhibition at 0.1 µM: 100 nM
Experimental: as §1

CAMK2δ = CAMK2δ (Homo sapiens, UniProt Q13557); assay: Kinome profiling CAMK2δ; conditions: read-out: Inhibitory activity CAMK2δ; for inhibition at 0.1 µM: 100 nM
Sequence of CAMK2δ (Q13557 whole entry): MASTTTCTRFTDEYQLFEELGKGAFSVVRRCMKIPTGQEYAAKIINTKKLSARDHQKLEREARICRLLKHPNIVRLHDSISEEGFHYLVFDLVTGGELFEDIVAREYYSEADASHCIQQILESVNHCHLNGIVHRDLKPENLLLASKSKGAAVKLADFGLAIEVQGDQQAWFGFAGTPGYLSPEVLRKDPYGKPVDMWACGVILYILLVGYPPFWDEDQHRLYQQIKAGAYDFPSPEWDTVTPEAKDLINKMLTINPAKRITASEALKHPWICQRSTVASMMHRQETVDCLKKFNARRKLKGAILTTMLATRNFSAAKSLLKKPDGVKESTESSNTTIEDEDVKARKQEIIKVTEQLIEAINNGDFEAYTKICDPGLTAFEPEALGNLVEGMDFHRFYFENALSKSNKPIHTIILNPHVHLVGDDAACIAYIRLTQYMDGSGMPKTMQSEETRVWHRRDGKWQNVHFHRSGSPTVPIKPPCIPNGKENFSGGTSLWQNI
Experimental: as §1

AKT2 = AKT2 (Homo sapiens, UniProt P31751); assay: Kinome profiling AKT2; conditions: read-out: Inhibitory activity AKT2; for inhibition at 0.1 µM: 100 nM
Experimental: as §1

AKT3 = AKT3 (Homo sapiens, UniProt Q9Y243); assay: Kinome profiling AKT3; conditions: read-out: Inhibitory activity AKT3; for inhibition at 0.1 µM: 100 nM
Experimental: as §1

CDK2/cyclinA = CDK2/cyclinA (Homo sapiens, UniProt P24941); assay: Kinome profiling CDK2/cyclinA; conditions: read-out: Inhibitory activity CDK2/cyclinA; for inhibition at 0.1 µM: 100 nM
Experimental: as §1

PKC-θ = PKC-θ (Homo sapiens, UniProt Q04759); assay: Kinome profiling PKC-θ; conditions: read-out: Inhibitory activity PKC-θ; for inhibition at 0.1 µM: 100 nM
Sequence of PKC-θ (Q04759 whole entry): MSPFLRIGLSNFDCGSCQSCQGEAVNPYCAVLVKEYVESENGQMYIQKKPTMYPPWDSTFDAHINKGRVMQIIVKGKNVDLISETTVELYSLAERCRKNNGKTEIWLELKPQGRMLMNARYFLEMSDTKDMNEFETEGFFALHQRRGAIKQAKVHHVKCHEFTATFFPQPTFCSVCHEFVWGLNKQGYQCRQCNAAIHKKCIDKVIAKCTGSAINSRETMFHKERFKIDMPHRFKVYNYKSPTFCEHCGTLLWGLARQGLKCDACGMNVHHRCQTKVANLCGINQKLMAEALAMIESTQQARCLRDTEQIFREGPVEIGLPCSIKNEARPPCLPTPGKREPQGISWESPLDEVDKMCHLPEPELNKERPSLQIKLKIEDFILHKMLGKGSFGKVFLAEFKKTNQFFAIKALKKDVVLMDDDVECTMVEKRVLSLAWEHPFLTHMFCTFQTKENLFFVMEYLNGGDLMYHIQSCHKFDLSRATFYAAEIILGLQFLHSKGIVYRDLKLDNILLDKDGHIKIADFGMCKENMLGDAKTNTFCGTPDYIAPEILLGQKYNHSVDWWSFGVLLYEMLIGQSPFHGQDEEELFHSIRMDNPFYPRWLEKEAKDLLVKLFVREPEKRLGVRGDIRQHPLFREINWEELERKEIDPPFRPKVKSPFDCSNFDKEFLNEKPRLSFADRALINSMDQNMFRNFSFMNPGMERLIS
Experimental: as §1

PASK = PASK (Homo sapiens, UniProt Q96RG2); assay: Kinome profiling PASK; conditions: read-out: Inhibitory activity PASK; for inhibition at 0.1 µM: 100 nM
Experimental: as §1

JAK1 = JAK1 (Homo sapiens, UniProt P23458); assay: Kinome profiling JAK1; conditions: read-out: Inhibitory activity JAK1; for inhibition at 0.1 µM: 100 nM
Sequence of JAK1 (P23458 whole entry): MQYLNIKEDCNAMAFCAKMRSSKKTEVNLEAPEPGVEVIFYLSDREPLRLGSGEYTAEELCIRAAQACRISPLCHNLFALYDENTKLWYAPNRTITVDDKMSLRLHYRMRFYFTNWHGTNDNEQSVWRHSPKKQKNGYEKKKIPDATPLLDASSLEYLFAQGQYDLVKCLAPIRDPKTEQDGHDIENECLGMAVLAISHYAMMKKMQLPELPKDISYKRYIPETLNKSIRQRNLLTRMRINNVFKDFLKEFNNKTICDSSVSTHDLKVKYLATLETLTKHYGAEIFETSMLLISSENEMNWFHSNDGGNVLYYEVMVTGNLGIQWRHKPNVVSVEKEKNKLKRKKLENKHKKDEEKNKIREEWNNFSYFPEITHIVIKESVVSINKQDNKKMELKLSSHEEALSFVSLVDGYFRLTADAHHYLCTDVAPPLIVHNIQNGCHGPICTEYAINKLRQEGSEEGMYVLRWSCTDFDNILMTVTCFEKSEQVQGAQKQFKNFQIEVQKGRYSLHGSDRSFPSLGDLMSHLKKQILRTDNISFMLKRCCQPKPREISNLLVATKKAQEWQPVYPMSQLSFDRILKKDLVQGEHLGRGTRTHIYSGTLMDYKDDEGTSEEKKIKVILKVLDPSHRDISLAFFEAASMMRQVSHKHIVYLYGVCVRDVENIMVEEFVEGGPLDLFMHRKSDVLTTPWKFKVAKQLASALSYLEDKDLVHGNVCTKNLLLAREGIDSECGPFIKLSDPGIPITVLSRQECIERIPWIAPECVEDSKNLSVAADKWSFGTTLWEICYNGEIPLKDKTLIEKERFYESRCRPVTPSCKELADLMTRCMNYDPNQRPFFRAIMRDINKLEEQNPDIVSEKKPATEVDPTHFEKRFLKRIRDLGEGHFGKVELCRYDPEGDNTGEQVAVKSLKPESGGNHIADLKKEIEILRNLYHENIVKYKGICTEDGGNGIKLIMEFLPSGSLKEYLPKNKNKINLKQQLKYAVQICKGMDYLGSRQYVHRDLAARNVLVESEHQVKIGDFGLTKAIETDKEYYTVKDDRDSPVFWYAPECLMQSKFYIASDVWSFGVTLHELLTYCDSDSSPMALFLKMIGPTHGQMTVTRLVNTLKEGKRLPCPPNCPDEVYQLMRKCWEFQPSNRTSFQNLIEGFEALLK
Experimental: as §1

CLK3 = CLK3 (Homo sapiens, UniProt P49761); assay: Kinome profiling CLK3; conditions: read-out: Inhibitory activity CLK3; for inhibition at 0.1 µM: 100 nM
Experimental: as §1

JAK2 = JAK2 (Homo sapiens, UniProt O60674); assay: Kinome profiling JAK2; conditions: read-out: Inhibitory activity JAK2; for inhibition at 0.1 µM: 100 nM
Sequence of JAK2 (O60674 whole entry): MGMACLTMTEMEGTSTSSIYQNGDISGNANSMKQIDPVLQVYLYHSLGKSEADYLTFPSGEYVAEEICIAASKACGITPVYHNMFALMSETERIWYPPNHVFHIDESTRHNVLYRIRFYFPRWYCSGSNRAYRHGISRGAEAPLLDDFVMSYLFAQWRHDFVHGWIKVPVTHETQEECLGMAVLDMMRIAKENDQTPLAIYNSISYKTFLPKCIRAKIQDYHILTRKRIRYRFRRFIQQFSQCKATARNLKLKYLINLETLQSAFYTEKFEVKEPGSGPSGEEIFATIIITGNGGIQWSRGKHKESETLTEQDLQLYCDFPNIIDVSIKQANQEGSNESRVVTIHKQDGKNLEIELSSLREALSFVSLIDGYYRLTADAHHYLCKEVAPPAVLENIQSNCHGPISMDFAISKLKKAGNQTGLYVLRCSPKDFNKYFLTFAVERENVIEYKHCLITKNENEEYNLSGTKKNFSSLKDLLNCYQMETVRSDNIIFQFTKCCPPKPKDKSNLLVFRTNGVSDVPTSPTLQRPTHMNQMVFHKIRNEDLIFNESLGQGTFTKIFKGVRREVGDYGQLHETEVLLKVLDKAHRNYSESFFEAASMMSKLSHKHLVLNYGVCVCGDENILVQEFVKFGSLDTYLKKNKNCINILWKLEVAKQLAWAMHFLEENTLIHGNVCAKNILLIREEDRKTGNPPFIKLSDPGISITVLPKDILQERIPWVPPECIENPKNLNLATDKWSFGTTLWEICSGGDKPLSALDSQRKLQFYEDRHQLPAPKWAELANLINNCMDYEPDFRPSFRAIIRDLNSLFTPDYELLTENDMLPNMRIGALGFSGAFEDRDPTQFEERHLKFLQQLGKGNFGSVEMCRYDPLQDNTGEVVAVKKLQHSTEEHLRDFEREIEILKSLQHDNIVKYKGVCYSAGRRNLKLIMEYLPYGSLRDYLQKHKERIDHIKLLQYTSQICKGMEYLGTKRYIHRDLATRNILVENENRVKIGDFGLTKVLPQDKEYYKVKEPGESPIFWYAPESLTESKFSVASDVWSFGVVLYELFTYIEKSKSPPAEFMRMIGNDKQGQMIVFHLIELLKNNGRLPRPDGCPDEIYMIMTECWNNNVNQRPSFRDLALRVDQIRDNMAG
Experimental: as §1

FGFR4 = FGFR4 (Homo sapiens, UniProt P22455); assay: Kinome profiling FGFR4; conditions: read-out: Inhibitory activity FGFR4; for inhibition at 0.1 µM: 100 nM
Experimental: as §1

IKK-α = target: T1, IKK-α (Homo sapiens, UniProt O15111); assay: Kinome profiling IKK-α; conditions: read-out: Inhibitory activity IKK-α; for inhibition at 0.1 µM: 100 nM
T1 sequence (O15111 1-745): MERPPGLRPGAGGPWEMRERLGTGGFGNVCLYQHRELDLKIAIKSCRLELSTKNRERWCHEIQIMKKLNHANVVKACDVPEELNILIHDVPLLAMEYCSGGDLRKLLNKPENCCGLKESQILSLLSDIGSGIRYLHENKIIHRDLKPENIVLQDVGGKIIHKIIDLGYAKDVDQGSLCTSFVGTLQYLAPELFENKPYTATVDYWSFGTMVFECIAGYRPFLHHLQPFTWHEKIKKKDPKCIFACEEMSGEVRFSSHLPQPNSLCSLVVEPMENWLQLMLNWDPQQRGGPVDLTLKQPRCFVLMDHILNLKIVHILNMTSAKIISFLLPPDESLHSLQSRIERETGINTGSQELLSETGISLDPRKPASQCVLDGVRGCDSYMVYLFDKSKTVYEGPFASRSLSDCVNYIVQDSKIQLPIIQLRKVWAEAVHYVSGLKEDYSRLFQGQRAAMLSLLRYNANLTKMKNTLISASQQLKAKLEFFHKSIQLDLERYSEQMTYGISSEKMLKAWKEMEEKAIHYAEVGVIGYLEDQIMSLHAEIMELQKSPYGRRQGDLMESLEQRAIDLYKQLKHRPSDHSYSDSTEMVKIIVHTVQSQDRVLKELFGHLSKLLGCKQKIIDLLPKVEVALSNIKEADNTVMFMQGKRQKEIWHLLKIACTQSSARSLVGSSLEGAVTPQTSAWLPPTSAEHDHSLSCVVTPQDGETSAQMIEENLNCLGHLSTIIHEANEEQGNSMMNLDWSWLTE
Experimental: as §1

[1] = Table 4, read-out: Inhibitory Activity ARG
[2] = read-out: Inhibitory activity ARG (ABL2)

Sequence of ARG (ABL2) (P42684 whole entry): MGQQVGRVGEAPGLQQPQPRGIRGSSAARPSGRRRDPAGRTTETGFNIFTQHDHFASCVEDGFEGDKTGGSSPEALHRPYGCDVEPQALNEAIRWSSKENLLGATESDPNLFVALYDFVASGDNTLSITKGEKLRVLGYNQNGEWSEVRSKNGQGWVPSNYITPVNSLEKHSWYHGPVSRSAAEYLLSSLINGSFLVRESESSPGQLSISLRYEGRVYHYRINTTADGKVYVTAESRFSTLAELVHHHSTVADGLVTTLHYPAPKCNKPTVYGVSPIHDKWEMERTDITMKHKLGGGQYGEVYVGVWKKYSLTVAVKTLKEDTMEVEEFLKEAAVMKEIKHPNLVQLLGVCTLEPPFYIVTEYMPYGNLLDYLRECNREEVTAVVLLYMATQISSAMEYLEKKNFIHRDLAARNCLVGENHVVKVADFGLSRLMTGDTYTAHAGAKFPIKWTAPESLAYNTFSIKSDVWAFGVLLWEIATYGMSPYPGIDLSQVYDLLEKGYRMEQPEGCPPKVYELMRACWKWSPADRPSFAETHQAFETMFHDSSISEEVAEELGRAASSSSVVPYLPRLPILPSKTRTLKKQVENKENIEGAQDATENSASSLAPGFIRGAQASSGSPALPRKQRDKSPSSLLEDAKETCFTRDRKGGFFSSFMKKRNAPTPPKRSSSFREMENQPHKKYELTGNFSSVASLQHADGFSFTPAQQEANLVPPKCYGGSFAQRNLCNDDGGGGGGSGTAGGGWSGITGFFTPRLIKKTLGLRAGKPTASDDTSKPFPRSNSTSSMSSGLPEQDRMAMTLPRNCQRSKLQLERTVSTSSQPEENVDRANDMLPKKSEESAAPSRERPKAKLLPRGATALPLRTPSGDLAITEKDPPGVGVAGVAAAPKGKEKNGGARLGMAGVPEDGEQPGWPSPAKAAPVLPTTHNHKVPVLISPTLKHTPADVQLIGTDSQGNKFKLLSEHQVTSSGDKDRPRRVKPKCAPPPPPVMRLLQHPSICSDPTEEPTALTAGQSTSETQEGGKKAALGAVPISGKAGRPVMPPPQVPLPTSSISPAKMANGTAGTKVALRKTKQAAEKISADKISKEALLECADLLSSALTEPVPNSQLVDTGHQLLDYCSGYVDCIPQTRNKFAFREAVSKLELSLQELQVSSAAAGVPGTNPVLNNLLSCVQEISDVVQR

Row | SMILES | inhibition at 0.1 µM (ARG (ABL2); [2]) [%] | inhibition at 1 µM (ARG (ABL2); [2]) [%] | inhibition at 0.1 µM (PDGFRα) [%] | inhibition at 1 µM (PDGFRα) [%] | inhibition at 0.1 µM (MNK2) [%] | inhibition at 1 µM (MNK2) [%] | inhibition at 0.1 µM (RSK1) [%] | inhibition at 1 µM (RSK1) [%] | inhibition at 0.1 µM (CAMK2δ) [%] | inhibition at 1 µM (CAMK2δ) [%] | inhibition at 0.1 µM (AKT2) [%] | inhibition at 1 µM (AKT2) [%] | inhibition at 0.1 µM (AKT3) [%] | inhibition at 1 µM (AKT3) [%] | inhibition at 0.1 µM (CDK2/cyclinA) [%] | inhibition at 1 µM (CDK2/cyclinA) [%] | inhibition at 0.1 µM (PKC-θ) [%] | inhibition at 1 µM (PKC-θ) [%] | inhibition at 0.1 µM (PASK) [%] | inhibition at 1 µM (PASK) [%] | further results
1 | COc1cc(-c2cc(-c3ccc(N4CCNCC4)cc3)cnc2C)cc(OC)c1OC [Compound 10, 1-(4-(6-methyl-5-(3,4,5-trimethoxyphenyl)pyridin-3-yl)phenyl)piperazine] | 17 | 62 | 9 | 40 | 6 | 6 | 1 | 1 | 1 | 1 | -1 | -1 | 1 | 1 | 4 | 1 | 1 | 2 | 3 | 4 | inhibition at 0.1 µM (ARG (ABL2); [1]): 17%; inhibition at 1 µM (ARG (ABL2); [1]): 62%; inhibition at 0.1 µM (JAK1): 2%; inhibition at 1 µM (JAK1): 2%; inhibition at 0.1 µM (CLK3): 9%; inhibition at 1 µM (CLK3): 12%; inhibition at 0.1 µM (JAK2): 5%; inhibition at 1 µM (JAK2): 4%; inhibition at 0.1 µM (FGFR4): 1%; inhibition at 1 µM (FGFR4): 2%; inhibition at 0.1 µM (IKK-α): 3%; inhibition at 1 µM (IKK-α): 4%
2 | COc1cc(-c2cc(-c3ccc(N4CCNCC4)cc3)cnc2N)cc(OC)c1OC [Compound 15, 5-(4-(piperazin-1-yl)phenyl)-3-(3,4,5-trimethoxyphenyl)pyridin-2-amine] | 60 | 81 | 39 | 76 | 1 | 7 | 1 | 5 | 1 | 3 | 2 | 2 | 0 | 2 | 1 | 2 | 1 | 1 | 2 | 1 | inhibition at 0.1 µM (JAK1): 1%; inhibition at 1 µM (JAK1): 0%; inhibition at 0.1 µM (CLK3): 0%; inhibition at 1 µM (CLK3): 0%; inhibition at 0.1 µM (JAK2): 0%; inhibition at 1 µM (JAK2): 0%; inhibition at 0.1 µM (FGFR4): 1%; inhibition at 1 µM (FGFR4): 0%; inhibition at 0.1 µM (IKK-α): -1%; inhibition at 1 µM (IKK-α): -2%
